In patent US20240391862A1, “(1,4,5-TRISUBSTITUTED-1H-PYRAZOL-3-YL)OXY-2-ALKOXY ALKYL ACIDS AND THEIR DERIVATIVES, THEIR SALTS AND THEIR USE AS HERBICIDAL AGENTS” (Bayer AKtiengesellschaft, priority 2021, published 2024):

Experiments:
Experiment in all cases: Post-emergence herbicidal effect, greenhouse pot test
DIGSA = type: in vivo, Digitaria sanguinalis; details: Digitaria sanguinalis, 504 h, visual rating about 3 weeks after treatment, read-out: Post-emergence effect against DIGSA
Summary of the method: (§1)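 Greenhouse pot test: weeds and crops sown in sandy loam, sprayed post-emergence at one-leaf stage (2–3 weeks after sowing) with WP or EC formulations plus 0.5% additive at 600 l/ha water, rates 20–320 g/ha. Visual rating about 3 weeks later versus untreated controls (100% = dead, 0% = as control).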

VERPE = type: in vivo, Veronica persica; details: Veronica persica, 504 h, read-out: Post-emergence effect against VERPE in %
Summary of the method: as §1

ECHCG = type: in vivo, Echinochloa crus-galli; details: Echinochloa crus-galli, 504 h; for pest or weed control at 20 g/ha: visual rating about 3 weeks after treatment, read-out: Post-emergence effect against ECHCG; for pest or weed control at 80 g/ha / pest or weed control at 320 g/ha: read-out: Post-emergence effect against ECHCG in %
Summary of the method: as §1

ABUTH = type: in vivo, Abutilon theophrasti; details: Abutilon theophrasti, 504 h, visual rating about 3 weeks after treatment, read-out: Post-emergence effect against ABUTH
Summary of the method: as §1

POLCO = type: in vivo, Fallopia convolvulus; details: Fallopia convolvulus, 504 h, read-out: Post-emergence effect against POLCO in %
Summary of the method: as §1

SETVI = type: in vivo, Setaria viridis; details: Setaria viridis, 504 h, read-out: Post-emergence effect against SETVI in %
Summary of the method: as §1

KCHSC = type: in vivo; details: 504 h, read-out: Post-emergence effect against KCHSC in %
Summary of the method: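 Visual rating of activity against untreated plants (100% = plants died, 0% = no effect), done about 3 weeks after treatment. Compounds applied at 20–320 g/ha as aqueous spray (600 l/ha, 0.5% additive) from WP or EC formulations onto one-leaf-stage plants grown in sandy loam under greenhouse conditions.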

ALOMY = type: in vivo, Alopecurus myosuroides; details: Alopecurus myosuroides, 504 h, visual rating about 3 weeks after treatment, read-out: Post-emergence effect against ALOMY
Summary of the method: as §1

AVEFA = type: in vivo, Avena fatua; details: Avena fatua, 504 h, visual rating about 3 weeks after treatment, read-out: Post-emergence effect against AVEFA
Summary of the method: as §1

PHBPU = type: in vivo, Ipomoea purpurea; details: Ipomoea purpurea, 504 h, read-out: Post-emergence effect against PHBPU in %
Summary of the method: as §1

VIOTR = type: in vivo, Viola tricolor; details: Viola tricolor, 504 h, read-out: Post-emergence effect against VIOTR in %
Summary of the method: as §1

LOLRI = type: in vivo, Lolium rigidum; details: Lolium rigidum, 504 h, 320 g/ha, read-out: Post-emergence effect against LOLRI in %
Summary of the method: as §1

AMARE = type: in vivo, Amaranthus retroflexus; details: Amaranthus retroflexus, 504 h, visual rating about 3 weeks after treatment, read-out: Post-emergence effect against AMARE
Summary of the method: as §1

MATIN = type: in vivo, Tripleurospermum inodorum; details: Tripleurospermum inodorum, 504 h, read-out: Post-emergence effect against MATIN in %
Summary of the method: as §1

**Q.** How did the pest or weed control at 320 g/ha (DIGSA) turn out when `CCOC(=O)C(OCC)Oc1nn(-c2ccccc2F)c(-c2ccc(F)nc2)c1Cl` (centres unmarked) [Example I-50] was run?
**A.** The pest or weed control at 320 g/ha was 90%.

**Q.** And the pest or weed control at 80 g/ha (VERPE)?
**A.** The pest or weed control at 80 g/ha was 90%.

**Q.** What about the pest or weed control at 320 g/ha (VERPE) of the same molecule?
**A.** Its pest or weed control at 320 g/ha is 90%.

**Q.** And the pest or weed control at 20 g/ha (ECHCG)?
**A.** Its pest or weed control at 20 g/ha is 90%.

**Q.** What about the pest or weed control at 80 g/ha (ECHCG) of the same molecule?
**A.** Its pest or weed control at 80 g/ha is 90%.

**Q.** And the pest or weed control at 320 g/ha (ECHCG)?
**A.** Its pest or weed control at 320 g/ha is 90%.

**Q.** And the pest or weed control at 80 g/ha (ABUTH)?
**A.** The pest or weed control at 80 g/ha was 80%.

**Q.** What about the pest or weed control at 320 g/ha (ABUTH) of the same molecule?
**A.** Its pest or weed control at 320 g/ha is 90%.

**Q.** And the pest or weed control at 320 g/ha (POLCO)?
**A.** Its pest or weed control at 320 g/ha is 80%.

**Q.** And the pest or weed control at 80 g/ha (SETVI)?
**A.** The pest or weed control at 80 g/ha was 90%.

**Q.** And the pest or weed control at 320 g/ha (SETVI)?
**A.** The pest or weed control at 320 g/ha was 90%.

**Q.** And the pest or weed control at 320 g/ha (KCHSC)?
**A.** The pest or weed control at 320 g/ha was 80%.

**Q.** What about the pest or weed control at 320 g/ha (ALOMY) of the same molecule?
**A.** The pest or weed control at 320 g/ha was 80%.

**Q.** And the pest or weed control at 320 g/ha (AVEFA)?
**A.** The pest or weed control at 320 g/ha was 90%.

**Q.** What about the pest or weed control at 80 g/ha (PHBPU) of the same molecule?
**A.** Its pest or weed control at 80 g/ha is 90%.

**Q.** What about the pest or weed control at 320 g/ha (PHBPU) of the same molecule?
**A.** Its pest or weed control at 320 g/ha is 90%.

**Q.** And the pest or weed control at 80 g/ha (VIOTR)?
**A.** The pest or weed control at 80 g/ha was 80%.

**Q.** And the pest or weed control at 320 g/ha (VIOTR)?
**A.** The pest or weed control at 320 g/ha was 90%.

**Q.** What about the pest or weed control at 320 g/ha (LOLRI) of the same molecule?
**A.** Its pest or weed control at 320 g/ha is 90%.

**Q.** And the pest or weed control at 320 g/ha (AMARE)?
**A.** Its pest or weed control at 320 g/ha is 80%.

**Q.** And the pest or weed control at 320 g/ha (MATIN)?
**A.** The pest or weed control at 320 g/ha was 80%.

**Q.** What does the source list for `COC(=O)C(OC)Oc1nn(-c2ccccc2F)c(-c2ccc(F)nc2)c1C(F)(F)F` (centres unmarked) [Example I-70]?
**A.** pest or weed control at 80 g/ha (DIGSA): 80%; pest or weed control at 320 g/ha (DIGSA): 90%; pest or weed control at 80 g/ha (VERPE): 90%; pest or weed control at 320 g/ha (VERPE): 90%; pest or weed control at 80 g/ha (ECHCG): 90%; pest or weed control at 320 g/ha (ECHCG): 90%; pest or weed control at 80 g/ha (ABUTH): 80%; pest or weed control at 320 g/ha (ABUTH): 90%; pest or weed control at 20 g/ha (POLCO): 80%; pest or weed control at 80 g/ha (POLCO): 80%; pest or weed control at 320 g/ha (POLCO): 80%; pest or weed control at 80 g/ha (SETVI): 80%; pest or weed control at 320 g/ha (SETVI): 80%; pest or weed control at 20 g/ha (KCHSC): 80%; pest or weed control at 80 g/ha (KCHSC): 90%; pest or weed control at 320 g/ha (KCHSC): 90%; pest or weed control at 80 g/ha (ALOMY; 80 g/ha): 80%; pest or weed control at 320 g/ha (ALOMY): 90%; pest or weed control at 80 g/ha (AVEFA): 90%; pest or weed control at 320 g/ha (AVEFA): 90%; pest or weed control at 80 g/ha (PHBPU): 90%; pest or weed control at 320 g/ha (PHBPU): 90%; pest or weed control at 80 g/ha (VIOTR): 90%; pest or weed control at 320 g/ha (VIOTR): 90%; pest or weed control at 320 g/ha (LOLRI): 90%; pest or weed control at 80 g/ha (AMARE): 80%; pest or weed control at 320 g/ha (AMARE): 80%; pest or weed control at 80 g/ha (MATIN; 80 g/ha): 80%; pest or weed control at 320 g/ha (MATIN): 80%

**Q.** For `COC(=O)C(OC)Oc1nn(-c2ncccc2F)c(-c2cncc(F)c2)c1I` (centres unmarked) [Example I-72], which pest or weed control at 80 g/ha (DIGSA) is on record?
**A.** Its pest or weed control at 80 g/ha is 90%.

**Q.** What about the pest or weed control at 320 g/ha (DIGSA) of the same molecule?
**A.** Its pest or weed control at 320 g/ha is 90%.

**Q.** What about the pest or weed control at 320 g/ha (VERPE) of the same molecule?
**A.** Its pest or weed control at 320 g/ha is 90%.

**Q.** And the pest or weed control at 20 g/ha (ECHCG)?
**A.** The pest or weed control at 20 g/ha was 90%.

**Q.** What about the pest or weed control at 80 g/ha (ECHCG) of the same molecule?
**A.** The pest or weed control at 80 g/ha was 90%.

**Q.** And the pest or weed control at 320 g/ha (ECHCG)?
**A.** Its pest or weed control at 320 g/ha is 90%.

**Q.** And the pest or weed control at 80 g/ha (ABUTH)?
**A.** Its pest or weed control at 80 g/ha is 80%.

**Q.** What about the pest or weed control at 320 g/ha (ABUTH) of the same molecule?
**A.** Its pest or weed control at 320 g/ha is 90%.

**Q.** What about the pest or weed control at 20 g/ha (POLCO) of the same molecule?
**A.** Its pest or weed control at 20 g/ha is 80%.

**Q.** What about the pest or weed control at 80 g/ha (POLCO) of the same molecule?
**A.** Its pest or weed control at 80 g/ha is 80%.

**Q.** And the pest or weed control at 320 g/ha (POLCO)?
**A.** Its pest or weed control at 320 g/ha is 90%.

**Q.** And the pest or weed control at 20 g/ha (SETVI; 20 g/ha)?
**A.** Its pest or weed control at 20 g/ha is 90%.

**Q.** And the pest or weed control at 80 g/ha (SETVI)?
**A.** The pest or weed control at 80 g/ha was 90%.

**Q.** And the pest or weed control at 320 g/ha (SETVI)?
**A.** The pest or weed control at 320 g/ha was 90%.

**Q.** And the pest or weed control at 20 g/ha (KCHSC)?
**A.** The pest or weed control at 20 g/ha was 90%.

**Q.** And the pest or weed control at 80 g/ha (KCHSC)?
**A.** Its pest or weed control at 80 g/ha is 90%.

**Q.** What about the pest or weed control at 320 g/ha (KCHSC) of the same molecule?
**A.** Its pest or weed control at 320 g/ha is 90%.

**Q.** What about the pest or weed control at 320 g/ha (ALOMY) of the same molecule?
**A.** The pest or weed control at 320 g/ha was 90%.

**Q.** And the pest or weed control at 80 g/ha (AVEFA)?
**A.** The pest or weed control at 80 g/ha was 90%.

**Q.** What about the pest or weed control at 320 g/ha (AVEFA) of the same molecule?
**A.** Its pest or weed control at 320 g/ha is 90%.

**Q.** And the pest or weed control at 20 g/ha (PHBPU; 20 g/ha)?
**A.** Its pest or weed control at 20 g/ha is 80%.

**Q.** And the pest or weed control at 80 g/ha (PHBPU)?
**A.** Its pest or weed control at 80 g/ha is 90%.

**Q.** What about the pest or weed control at 320 g/ha (PHBPU) of the same molecule?
**A.** The pest or weed control at 320 g/ha was 90%.

**Q.** And the pest or weed control at 20 g/ha (VIOTR; 20 g/ha)?
**A.** Its pest or weed control at 20 g/ha is 90%.

**Q.** And the pest or weed control at 80 g/ha (VIOTR)?
**A.** Its pest or weed control at 80 g/ha is 90%.

**Q.** And the pest or weed control at 320 g/ha (VIOTR)?
**A.** Its pest or weed control at 320 g/ha is 90%.

**Q.** What about the pest or weed control at 320 g/ha (LOLRI) of the same molecule?
**A.** Its pest or weed control at 320 g/ha is 90%.

**Q.** And the pest or weed control at 20 g/ha (AMARE; 20 g/ha)?
**A.** The pest or weed control at 20 g/ha was 80%.

**Q.** What about the pest or weed control at 80 g/ha (AMARE) of the same molecule?
**A.** Its pest or weed control at 80 g/ha is 80%.

**Q.** What about the pest or weed control at 320 g/ha (AMARE) of the same molecule?
**A.** The pest or weed control at 320 g/ha was 80%.
